Data set [1] is described as follows: Maximum non-lethal dose (NLD), single intravenous dose in mice. The data set is classed as in vivo, Swiss-Webster male mice. The conditions noted are these: test compounds as aspartate salts in 5% mannitol, AmB as FUNGIZONE
On the procedure: (§1) A variety of the compounds synthesized as described in Section 5, supra, were tested in various in vivo assays, as described below. The results of the various assays are provided in TABLE 3, presented at the end of this section. In all of the in vivo assays described, the test compounds, in the form of the aspartate salts, were formulated in an aqueous vehicle (5% mannitol in sterile water; OSMITROL, Baxter Healthcare, Deerfield, Ill.), followed by appropriate dilutions. The formulations were prepared fresh before dosing.
(§2) AmB and AME were also tested for comparison. For AmB, the commercially available FUNGIZONE (Bristol-Meyers Squibb Co.) was used. Reported values are based upon the weight of the AmB active ingredient, not on the basis of the weight of the FUNGIZONE powder. AME was formulated in OSMITROL as described for the test compounds.
Maximum non-lethal dose (NLD) data were obtained for selected compounds. A single intravenous dose was administered to each of four mice (Swiss-Webster male mice; Simonsen Laboratories, Gilroy, Calif.) in several groups. The doses selected were based upon the NLDs of compounds of similar structures. After review of findings, higher or lower doses were administered and a NLD was determined. The results are tabulated in TABLE 3, below (NLD Acute Mice). The values for AmB and AME are provided for comparison

Data set [2] deals with C. albicans. In words: 5 day kidney bioburden evaluation in immunocompetent mice challenged with C. albicans. The conditions noted are these: Candida albicans, ip, 120 h; intraperitoneally once daily for 5 days, immunocompetent mice, C. albicans; 50% of animals with 2 log10 reduction in kidney CFU; read-out: ED50 mice 5 day. The data set is classed as in vivo, Swiss-Webster mice. The procedure:
as §1, §2
Various polyene macrolide amide derivatives of the invention were evaluated for their protective effect when administered intraperitoneally once daily for 5 days to immunocompetent mice challenged with live C. albicans.
C. albicans was grown on Sabouraud dextrose agar (SDA) plates for 48 hr. Colonies were harvested and washed twice by centrifugation in phosphate-buffered saline (PBS). The washed pellets were resuspended in PBS and diluted to achieve the desired number of fungi per milliliter. A portion of the inoculum was plated on SDA plates to determine the colony-forming units (CFU) per milliliter.
Swiss-Webster mice (Simonsen Laboratories, Gilroy, Calif.) were administered by intravenous injection a single inoculum (0.2 mL) containing as estimated 2.0×10^5 CFU of C. albicans. The day of inoculation was designated as study day 0. Beginning three days after injection, mice were treated intraperitoneally with vehicle alone or formulated test compound once daily for 5 consecutive days.
The mice were observed daily from study day 0 through study day 10 (3 days after the last dose). Mice found dead or euthanized in extremis were removed from the study without further processing. Surviving mice were euthanized by inhalation of CO2 on study day 10 and both kidneys from each mouse were removed. Each pair of removed kidneys was homogenized in 3 mL of ice-cold PBS containing 10% glycerol. A portion of each homogenate was used to determine log10 CFU per kidney using SDA plates (48 hours of incubation at 30° C.). Kidney log10 CFU data were analyzed using a t-test. The criterion for a statistically significant response was set at p<0.01.
For comparison, the results for AmB and AME are also provided. Efficacy was defined for individual animals as a greater than 2 log10 reduction in kidney CFU relative to the mean vehicle control value.

In data set [3] the test system is C. albicans. In words: Minimum Inhibitory Concentrations (MICs) against C. albicans, NCCLS M27-A broth dilution. Format: cell-based. The conditions noted are these: Candida albicans, read-out: MIC. The procedure: For each compound synthesized, Minimum Inhibitory Concentrations (MICs) against C. albicans were determined as described in Reference Method for Broth Dilution Antifungal Susceptibility Testing of Yeasts, Approved Standard, NCCLS document M27-A (ISBN 1-56238-328-0), NCCLS, 940 West Valley Road, Suite 1400, Wayne, Pa. 19087, 1997.
Background: Broth dilution looks for growth in wells or tubes with falling amounts of substance.

Data set [4] is described as follows: Two week range-finding toxicity study in mice. The note with it: both sexes, CD-1, mouse, in vivo, iv. The data set is classed as in vivo, CD-1 mice. The procedure: as §1, §2
Various polyene macrolide amide derivatives of the invention were evaluated to characterize their potential toxicity when administered subchronically by intravenous injection.
CD-1® mice (Charles River Laboratories, Portage, Mich.) were acclimated to laboratory conditions for at least 5 days before the start of dosing. During the acclimation period, the general condition of the mice was evaluated, and those considered healthy were used. The mice were randomly assigned to treatment groups using a stratified body weight regimen. Each treatment group consisted of 3 male and 3 female mice. The mice were housed in a room with a controlled environment and provided rodent chow and water ad libitum.
On the first day of dosing, the mice were approximately 7 to 9 weeks old and weighed 22 to 30 g. Doses were administered by intravenous injection once daily on study days 1 to 5 and 8 to 12. Dosages were selected based upon data from efficacy and toxicology studies, and ranged from 1.25 to 30 mg/kg/day. Clinical observations were recorded 0.5 hr after dosing on days 1, 3, 5, 8, 10, 12 and 15, and on any day a change was observed. Body weights were recorded prior to dosing and on study days 8 and 12, and on study day 15 at the completion of the in-life phase of the study.
Animals that were found in a moribund/deteriorating clinical state were euthanized (animal designated killed in extremis) by inhalation of CO2. The day of death for any animal found dead or killed in extremis was recorded. Any animal that died prematurely was removed from the study without further processing.
One day after completion of dosing (study day 16), all surviving mice were euthanized by inhalation of CO2. Their kidneys were preserved for histopathologic examination. The maximum no-observed-adverse-effect level (NOAEL) was determined on the basis of clinical and histopathologic findings. The values for AmB and AME are provided for comparison.

In brackets after ≈: the same amount, converted by molar mass.

With `CC1[C@H](C)OC(=O)C[C@H](O)C[C@H](O)CC[C@@H](O)[C@H](O)C[C@H](O)C[C@]2(O)C[C@H](O)C(C(=O)NCC(O)C(O)C(O)C(O)CO)C(C[C@@H](OC3O[C@H](C)[C@@H](O)[C@H](NC[C@@]4(O)OC[C@@H](O)[C@@H](O)[C@@H]4O)[C@@H]3O)/C=C/C=C/C=C/C=C/C=C/C=C/C=C/[C@H](C)[C@H]1O)O2` (some centres unmarked) [Compound 103], in data set [1], the NLD acute mice is given as 10 mg/kg. For the same molecule, the ED50 with C. albicans [2] came out at 15 mg/kg. The MIC in the data set on C. albicans [3] came out at 1.1 µg/mL (≈ 0.88 µM).

In the case of `CC1[C@H](C)OC(=O)C[C@H](O)C[C@H](O)CC[C@@H](O)[C@H](O)C[C@H](O)C[C@]2(O)C[C@H](O)C(C(=O)N3CCN(C)CC3)C(C[C@@H](OC3O[C@H](C)[C@@H](O)[C@H](NC[C@@]4(O)OC[C@@H](O)[C@@H](O)[C@@H]4O)[C@@H]3O)/C=C/C=C/C=C/C=C/C=C/C=C/C=C/[C@H](C)[C@H]1O)O2` (some centres unmarked) [Compound 106], in data set [1], the NLD acute mice is recorded as less than 15 mg/kg. In addition, the NOAEL at 2 week in data set [4] (NOAEL 2 week mice clinical) was 3 mg/kg; in data set [4] (NOAEL 2 week mice histological) it was 6 mg/kg. In addition, the ED50 in the data set with C. albicans [2] came out at 3 mg/kg. For the same molecule, the minimal inhibitory concentration (MIC) with C. albicans [3] was 2 µg/mL (≈ 1.71 µM).

Consider `CC1[C@H](C)OC(=O)C[C@H](O)C[C@H](O)CC[C@@H](O)[C@H](O)C[C@H](O)C[C@]2(O)C[C@H](O)C(C(=O)NCCN3CCCCC3)C(C[C@@H](OC3O[C@H](C)[C@@H](O)[C@H](NC[C@@]4(O)OC[C@@H](O)[C@@H](O)[C@@H]4O)[C@@H]3O)/C=C/C=C/C=C/C=C/C=C/C=C/C=C/[C@H](C)[C@H]1O)O2` (some centres unmarked) [Compound 107], for which the NLD acute mice in data set [1] is greater than 40 mg/kg. In addition, in the data set with C. albicans [2], the ED50 is 28 mg/kg. The MIC in the data set with C. albicans [3] is 2 µg/mL (≈ 1.67 µM).

Regarding `CC1[C@H](C)OC(=O)C[C@H](O)C[C@H](O)CC[C@@H](O)[C@H](O)C[C@H](O)C[C@]2(O)C[C@H](O)C(C(=O)NCC(O)C(O)C(O)C(O)CO)C(C[C@@H](OC3O[C@H](C)[C@@H](O)[C@H](NC[C@@]4(O)OC[C@@H](O)[C@H](O)[C@@H]4O)[C@@H]3O)/C=C/C=C/C=C/C=C/C=C/C=C/C=C/[C@H](C)[C@H]1O)O2` (some centres unmarked) [Compound 110], in data set [1], the NLD acute mice was 10 mg/kg. In the data set on C. albicans [2], the median effective dose (ED50) came to 15 mg/kg. Also, the minimum inhibitory concentration (MIC) in the data set with C. albicans [3] was 1 µg/mL (≈ 0.8 µM).

For the molecule `CC1[C@H](C)OC(=O)C[C@H](O)C[C@H](O)CC[C@@H](O)[C@H](O)C[C@H](O)C[C@]2(O)C[C@H](O)C(C(=O)NCCCN3CCOCC3)C(C[C@@H](OC3O[C@H](C)[C@@H](O)[C@H](NC[C@@]4(O)OC[C@@H](O)[C@H](O)[C@@H]4O)[C@@H]3O)/C=C/C=C/C=C/C=C/C=C/C=C/C=C/[C@H](C)[C@H]1O)O2` (some centres unmarked) [Compound 111], the NLD acute mice in data set [1] came out at 20 mg/kg. The no observed adverse effect level (NOAEL) at 2 week in data set [4] (NOAEL 2 week mice clinical) is less than 7 mg/kg; in data set [4] (NOAEL 2 week mice histological) it was 7 mg/kg. In addition, the ED50 in the data set on C. albicans [2] came to 7 mg/kg. Moreover, the minimum inhibitory concentration (MIC) in the data set with C. albicans [3] came out at 2.7 µg/mL (≈ 2.23 µM).

As to `CC1[C@H](C)OC(=O)C[C@H](O)C[C@H](O)CC[C@@H](O)[C@H](O)C[C@H](O)C[C@]2(O)C[C@H](O)C(C(=O)N3CCN(C)CC3)C(C[C@@H](OC3O[C@H](C)[C@@H](O)[C@H](NC[C@@]4(O)OC[C@@H](O)[C@H](O)[C@@H]4O)[C@@H]3O)/C=C/C=C/C=C/C=C/C=C/C=C/C=C/[C@H](C)[C@H]1O)O2` (some centres unmarked) [Compound 113], the NLD acute mice in data set [1] is reported as 7.5 mg/kg. Also, the NOAEL at 2 week in data set [4] (NOAEL 2 week mice clinical) was greater than 5 mg/kg; in data set [4] (NOAEL 2 week mice histological), 1.25 mg/kg. The median effective dose (ED50) in the data set on C. albicans [2] was determined as 2 mg/kg. For the same molecule, in the data set on C. albicans [3], the MIC is 3.3 µg/mL (≈ 2.82 µM).

For `CCN1CCN(C(=O)C2C3C[C@@H](OC4O[C@H](C)[C@@H](O)[C@H](NC[C@@]5(O)OC[C@@H](O)[C@H](O)[C@@H]5O)[C@@H]4O)/C=C/C=C/C=C/C=C/C=C/C=C/C=C/[C@H](C)[C@@H](O)C(C)[C@H](C)OC(=O)C[C@H](O)C[C@H](O)CC[C@@H](O)[C@H](O)C[C@H](O)C[C@](O)(C[C@@H]2O)O3)CC1` (some centres unmarked) [Compound 133], in data set [1], the NLD acute mice amounted to 15 mg/kg. The same molecule displayed an NOAEL at 2 week in data set [4] (NOAEL 2 week mice clinical) of less than 5 mg/kg. In addition, in the data set on C. albicans [2], the ED50 turned out to be 4.1 mg/kg.

`CC1[C@H](C)OC(=O)C[C@H](O)C[C@H](O)CC[C@@H](O)[C@H](O)C[C@H](O)C[C@]2(O)C[C@H](O)C(C(=O)N3CCN(Cc4ccccc4)CC3)C(C[C@@H](OC3O[C@H](C)[C@@H](O)[C@H](NC[C@@]4(O)OC[C@@H](O)[C@H](O)[C@@H]4O)[C@@H]3O)/C=C/C=C/C=C/C=C/C=C/C=C/C=C/[C@H](C)[C@H]1O)O2` (some centres unmarked) [Compound 134]: the NLD acute mice in data set [1] is given as 30 mg/kg. The ED50 in the data set on C. albicans [2] is greater than 30 mg/kg. Besides, the MIC in the data set with C. albicans [3] turned out to be 1 µg/mL (≈ 0.804 µM).

For `CC1[C@H](C)OC(=O)C[C@H](O)C[C@H](O)CC[C@@H](O)[C@H](O)C[C@H](O)C[C@]2(O)C[C@H](O)C(C(=O)N3CCN(CCO)CC3)C(C[C@@H](OC3O[C@H](C)[C@@H](O)[C@H](NC[C@@]4(O)OC[C@@H](O)[C@H](O)[C@@H]4O)[C@@H]3O)/C=C/C=C/C=C/C=C/C=C/C=C/C=C/[C@H](C)[C@H]1O)O2` (some centres unmarked) [Compound 135], the NLD acute mice in data set [1] is reported as 10 mg/kg. Besides, the NOAEL at 2 week in data set [4] (NOAEL 2 week mice clinical) is 1.25 mg/kg; in data set [4] (NOAEL 2 week mice histological), greater than 5 mg/kg. Further, in the data set on C. albicans [2], the ED50 amounted to 1.6 mg/kg. For the same molecule, in the data set on C. albicans [3], the MIC was 6.3 µg/mL (≈ 5.26 µM).

Regarding `CC1[C@H](C)OC(=O)C[C@H](O)C[C@H](O)CC[C@@H](O)[C@H](O)C[C@H](O)C[C@]2(O)C[C@H](O)C(C(=O)N3CCN(c4ccccc4)CC3)C(C[C@@H](OC3O[C@H](C)[C@@H](O)[C@H](NC[C@@]4(O)OC[C@@H](O)[C@H](O)[C@@H]4O)[C@@H]3O)/C=C/C=C/C=C/C=C/C=C/C=C/C=C/[C@H](C)[C@H]1O)O2` (some centres unmarked) [Compound 136], in data set [1], the NLD acute mice is given as greater than 15 mg/kg. In the data set on C. albicans [2], the 50% effective dose (ED50) was 40.2 mg/kg. Further, in the data set on C. albicans [3], the minimum inhibitory concentration (MIC) turned out to be 0.4 µg/mL (≈ 0.325 µM).

Broadly, the ED50 is the midpoint of the dose-response relation. What is called MIC is the lowest concentration found to suppress growth. A word on the NOAEL: it is the highest tested level that showed no adverse finding.

The values above are taken from patent US6664241B2, “Water-soluble amide derivatives of polyene macrolides and preparation and uses thereof” (Micrologix Biotech Inc., priority 2000, dated 2003).
